{"source": "patent US9192653B2", "about": "“Protecting and repairing cartilage and musculoskeletal soft tissues” (University of Rochester, priority 2008, dated 2015)", "key": {"chick chondrocytes": {"tested_on": "chick chondrocytes", "experiment": "Continuous 48 hr exposure of chick chondrocytes in culture", "format": "cell-based", "conditions": "for smurf2 expression: 48 hr chronic, continuous exposure, chick chondrocytes", "procedure": "FIG. 3C is a histogram showing levels of Smurf2 mRNA relative to control in chick sternal chondrocytes cultured with TGFβ, BMP-2, PTHrP, or dibutyryl cyclic adenosine monophosphate (dbcAMP) following a chronic, 48 hour exposure.\nThe Western blots show pSmad3 and pSmad2 levels in chick sternal chondrocytes cultured in the presence or absence of TGFβ, PTHrP and/or a Smurf2 RNAi (Sf2 RNAi) for 48 hours.\nWithout meaning to be limited by theory, this may have been due to down-regulation of TGF-β signaling by smurf2, allowing BMP signals to drive hypertrophy."}, "[1]": {"tested_on": "articular cartilage in mice", "experiment": "Murine knee injury model (severe injury), daily injection, Alcian Blue histology", "format": "in vivo", "procedure": "Mice were anesthetized and an arthrotomy of the knee was performed. The medial collateral ligament was surgically transected, and the anterior horn of the medial meniscus was surgically removed to create a mild knee injury. For the severe injury group, the anterior cruciate ligament was also transected, causing severe joint instability in combination with the mild meniscal and medial collateral ligament injuries. The knee was surgically closed and animals were allowed free movement subsequently. One group with the severe combined injuries, as the most difficult case for cartilage protection, was treated daily with injections of teriparatide. After sacrifice at appropriate time points, the knee joints were removed, decalcified, embedded in paraffin, and 4-micron thick sections were stained with Alcian Blue to produce photomicrographs as shown in FIG. 4."}, "articular cartilage": {"tested_on": "articular cartilage", "experiment": "Immediate treatment after meniscus/ligament injury (osteoarthritis model)", "format": "in vivo, mice", "conditions": "for proteoglycan in the articular cartilage (Alcian Blue staining intensity): daily injection for 4 weeks starting immediately after surgery; for cartilage loss (histomorphometric joint cartilage area): daily injection for 12 weeks starting immediately after surgery", "procedure": "Treatment with teriparatide or PTH reduces the amount of cartilage loss as compared to treatment with saline. Mice exposed to sham surgery or meniscus/ligament injury, a model for osteoarthritis, were treated, starting immediately after surgery, with saline, teriparatide, or PTH for 4 weeks. […] Mice exposed to sham surgery or meniscus/ligament injury were treated, starting immediately after surgery, with saline, teriparatide, or PTH for 12 weeks."}, "cartilage": {"tested_on": "cartilage", "experiment": "Delayed treatment of osteoarthritic mice 8 weeks after joint surgery", "format": "in vivo", "conditions": "daily injections for 4 weeks after 8 week delay post surgery", "procedure": "Delayed treatment with teriparatide or PTH reduces the amount of cartilage loss as compared to treatment with saline. Mice were allowed to develop osteoarthritis for 8 weeks following joint surgery, as described above. After 8 weeks, the mice were treated for 4 weeks with daily injections of teriparatide or PTH, a delayed treatment regimen."}, "[2]": {"tested_on": "white zone meniscal tears", "experiment": "Rabbit white zone meniscal tear, treatment after surgery", "format": "in vivo", "conditions": "treated for 4 weeks after surgery, versus saline", "procedure": "FIGS. 12A and 12B show daily treatment with teriparatide for 4 weeks following meniscal surgery results in preliminary meniscal healing. […] Rabbits underwent surgery to produce white zone meniscal tears. The rabbits were treated with either saline (FIG. 12A) or teriparatide (FIG. 12B) after surgery for 4 weeks."}, "Rabbit meniscal cells": {"tested_on": "Rabbit meniscal cells", "experiment": "Cultured rabbit meniscal cells, mRNA expression", "format": "cell-based", "procedure": "Rabbit meniscal cells were isolated from rabbit menisci and cultured. Cultured meniscal cells were treated with PTH for 1 or 3 days."}}}
{"molecule": "CCCC(=O)Nc1ncnc2c1ncn2[C@@H]1O[C@@H]2COP(=O)(O)O[C@H]2[C@H]1OC(=O)CCC", "note": "[dbcAMP, dibutyryl cyclic adenosine monophosphate]", "values": [{"measurement": "smurf2 expression", "setting": "chick chondrocytes", "value": "stimulated smurf2 expression"}]}
{"molecule": "CC[C@H](C)[C@H](NC(=O)[C@H](CCC(=O)O)NC(=O)[C@H](CO)NC(=O)[C@@H](NC(=O)[C@@H](N)CO)C(C)C)C(=O)N[C@@H](CCC(N)=O)C(=O)N[C@@H](CC(C)C)C(=O)N[C@@H](CCSC)C(=O)N[C@@H](Cc1cnc[nH]1)C(=O)N[C@@H](CC(N)=O)C(=O)N[C@@H](CC(C)C)C(=O)NCC(=O)N[C@@H](CCCCN)C(=O)N[C@@H](Cc1cnc[nH]1)C(=O)N[C@@H](CC(C)C)C(=O)N[C@@H](CC(N)=O)C(=O)N[C@@H](CO)C(=O)N[C@@H](CCSC)C(=O)N[C@@H](CCC(=O)O)C(=O)N[C@@H](CCCN=C(N)N)C(=O)N[C@H](C(=O)N[C@@H](CCC(=O)O)C(=O)N[C@@H](Cc1c[nH]c2ccccc12)C(=O)N[C@@H](CC(C)C)C(=O)N[C@@H](CCCN=C(N)N)C(=O)N[C@@H](CCCCN)C(=O)N[C@@H](CCCCN)C(=O)N[C@@H](CC(C)C)C(=O)N[C@@H](CCC(N)=O)C(=O)N[C@@H](CC(=O)O)C(=O)N[C@H](C(=O)N[C@@H](Cc1cnc[nH]1)C(=O)N[C@@H](CC(N)=O)C(=O)N[C@@H](Cc1ccccc1)C(=O)O)C(C)C)C(C)C", "note": "[teriparatide]", "values": [{"measurement": "development of cartilage degeneration and osteoarthritis", "setting": "[1]; severe injury (ACL and MCL transection plus medial menisectomy), 4, 8, 12 weeks", "value": "dramatically retards the development of cartilage degeneration and osteoarthritis"}, {"measurement": "cellular repair activities and hypertrophy or maturational changes", "setting": "[1]; severe knee injury", "value": "stimulated cellular repair activities with suppression of hypertrophy or maturational changes"}, {"measurement": "proteoglycan in the articular cartilage (Alcian Blue staining intensity)", "setting": "articular cartilage", "value": "upregulation of proteoglycan"}, {"measurement": "cartilage loss (histomorphometric joint cartilage area)", "setting": "articular cartilage", "value": "reduction in cartilage loss"}, {"measurement": "cartilage loss and regeneration versus saline control", "setting": "cartilage", "value": "reduction in the loss of cartilage and regeneration of lost cartilage"}, {"measurement": "meniscal healing (defect, cellularity, proteoglycan content)", "setting": "[2]", "value": "narrowing of the defect with increased cellularlity and proteoglycan content"}]}
{"molecule": "parathyroid hormone-related peptide [PTHrP]", "values": [{"measurement": "smurf2 expression", "setting": "chick chondrocytes", "value": "stimulated smurf2 expression"}, {"measurement": "pSmad2 and pSmad3 levels (Western blot)", "setting": "chick chondrocytes; chick sternal chondrocytes, 48 hours, reversed by Smurf2 siRNA", "value": "reduction of pSmad2 and pSmad3"}]}
{"molecule": "parathyroid hormone (protein, listed as Homo sapiens, Parathyroid Hormone, Parathyroid hormone, ligand of the PTH/PTHrP receptor (PTHR1)) MIPAKDMAKVMIVMLAICFLTKSDGKSVKKRSVSEIQLMHNLGKHLNSMERVEWLRKKLQDVHNFVALGAPLAPRDAGSQRPRKKEDNVLVESHEKSLGEADKADVNVLTKAKSQ", "values": [{"measurement": "proteoglycan in the articular cartilage (Alcian Blue staining intensity)", "setting": "articular cartilage", "value": "upregulation of proteoglycan"}, {"measurement": "cartilage loss (histomorphometric joint cartilage area)", "setting": "articular cartilage", "value": "reduction in cartilage loss"}, {"measurement": "cartilage loss and regeneration versus saline control", "setting": "cartilage", "value": "reduction in the loss of cartilage and regeneration of lost cartilage"}, {"measurement": "cyclin D1 mRNA", "setting": "Rabbit meniscal cells; after 3 days of treatment", "value": "upregulation of mRNA for cyclin D1"}, {"measurement": "type I collagen mRNA", "setting": "Rabbit meniscal cells; treated for 1 or 3 days", "value": "upregulation of mRNA for type I collagen"}]}
